According to ChEMBL document CHEMBL3885881, “DrugMatrix”:

Species: Rattus norvegicus
Assay: DrugMatrix - Regimen: Daily Repeat
Format: toxicity, organism-based, Sprague-Dawley
Set-up: regimen Daily Repeat, gender Male, age 6-8 weeks
Details: in vivo, po, route oral GAVAGE, vehicle 100 % WATER; for ABSOLUTE BASOPHIL / ABSOLUTE EOSINOPHIL / ABSOLUTE LYMPHOCYTE / ABSOLUTE MONOCYTE / ABSOLUTE SEGMENTED NEUTROPHIL / BASOPHIL / EOSINOPHIL / ERYTHROCYTE COUNT / HEMATOCRIT / HEMOGLOBIN / LEUKOCYTE COUNT / LYMPHOCYTE / MEAN CORPUSCULAR HEMOGLOBIN / MEAN CORPUSCULAR HEMOGLOBIN CONCENTRATION / MEAN CORPUSCULAR VOLUME / MONOCYTE / NEUTROPHIL / NUCLEATED RED BLOOD CELLS / PLATELET COUNT: tissue Blood; for ALANINE AMINOTRANSFERASE / ALBUMIN / ALKALINE PHOSPHATASE / ASPARTATE AMINOTRANSFERASE / BLOOD UREA NITROGEN / CARBON DIOXIDE / CHLORIDE / CHOLESTEROL / CREATINE PHOSPHOKINASE / CREATININE / GLUCOSE / LACTATE DEHYDROGENASE / LIPASE / PHOSPHORUS / POTASSIUM / SODIUM / TOTAL BILIRUBIN / TOTAL PROTEIN / URIC ACID: tissue Plasma
[1] = 0 mg/kg, 72 h, dose level Control, time 3 day
[2] = 0 mg/kg, 120 h, dose level Control, time 5 day
[3] = 20 mg/kg, 72 h, dose level Low, time 3 day

Compound: CN(C)CCC=C1c2ccccc2CCc2ccccc21 [AMITRIPTYLINE]
- ABSOLUTE BASOPHIL [1]: 0 CELLS/uL
- ABSOLUTE EOSINOPHIL [1]: 58.83 CELLS/uL
- ABSOLUTE LYMPHOCYTE [1]: 11823.5 CELLS/uL
- ABSOLUTE MONOCYTE [1]: 169 CELLS/uL
- ABSOLUTE SEGMENTED NEUTROPHIL [1]: 815.33 CELLS/uL
- BASOPHIL [1]: 0%
- EOSINOPHIL [1]: 0.5%
- ERYTHROCYTE COUNT [1]: 5.52 x10E6/uL
- HEMATOCRIT [1]: 35.77%
- HEMOGLOBIN [1]: 14.28 G/DL
- LEUKOCYTE COUNT [1]: 12.87 x10E3/uL
- LYMPHOCYTE [1]: 91.67%
- MEAN CORPUSCULAR HEMOGLOBIN [1]: 25.92 pg
- MEAN CORPUSCULAR HEMOGLOBIN CONCENTRATION [1]: 39.95 G/DL
- MEAN CORPUSCULAR VOLUME [1]: 64.85 fL
- MONOCYTE [1]: 1.33%
- NEUTROPHIL [1]: 6.5%
- NUCLEATED RED BLOOD CELLS [1]: 0 /100WBC
- PLATELET COUNT [1]: 1246.17 x10E3/uL
- ALANINE AMINOTRANSFERASE [1]: 66 u/L
- ALBUMIN [1]: 4.25 G/DL
- ALKALINE PHOSPHATASE [1]: 416 u/L
- ASPARTATE AMINOTRANSFERASE [1]: 106.17 u/L
- BLOOD UREA NITROGEN [1]: 12.67 mg/dL
- CARBON DIOXIDE [1]: 31.83 mmol/L
- CHLORIDE [1]: 102.5 MEQ/L
- CHOLESTEROL [1]: 69 mg/dL
- CREATINE PHOSPHOKINASE [1]: 601.83 u/L
- CREATININE [1]: 0.18 mg/dL
- GLUCOSE [1]: 154.5 mg/dL
- LACTATE DEHYDROGENASE [1]: 301.83 u/L
- LIPASE [1]: 11.17 u/L
- PHOSPHORUS [1]: 12.08 mg/dL
- POTASSIUM [1]: 6.12 MEQ/L
- SODIUM [1]: 145.2 MEQ/L
- TOTAL BILIRUBIN [1]: 0.17 mg/dL
- TOTAL PROTEIN [1]: 6.1 G/DL
- URIC ACID [1]: 1.57 mg/dL
- ABSOLUTE BASOPHIL [2]: 0 CELLS/uL
- ABSOLUTE EOSINOPHIL [2]: 19.33 CELLS/uL
- ABSOLUTE LYMPHOCYTE [2]: 12577.83 CELLS/uL
- ABSOLUTE MONOCYTE [2]: 106.33 CELLS/uL
- ABSOLUTE SEGMENTED NEUTROPHIL [2]: 896.5 CELLS/uL
- BASOPHIL [2]: 0%
- EOSINOPHIL [2]: 0.17%
- ERYTHROCYTE COUNT [2]: 5.84 x10E6/uL
- HEMATOCRIT [2]: 36.88%
- HEMOGLOBIN [2]: 14.48 G/DL
- LEUKOCYTE COUNT [2]: 13.6 x10E3/uL
- LYMPHOCYTE [2]: 92.17%
- MEAN CORPUSCULAR HEMOGLOBIN [2]: 24.85 pg
- MEAN CORPUSCULAR HEMOGLOBIN CONCENTRATION [2]: 39.3 G/DL
- MEAN CORPUSCULAR VOLUME [2]: 63.23 fL
- MONOCYTE [2]: 0.83%
- NEUTROPHIL [2]: 6.83%
- NUCLEATED RED BLOOD CELLS [2]: 0 /100WBC
- PLATELET COUNT [2]: 1223.5 x10E3/uL
- ALANINE AMINOTRANSFERASE [2]: 55.33 u/L
- ALBUMIN [2]: 4.08 G/DL
- ALKALINE PHOSPHATASE [2]: 355.5 u/L
- ASPARTATE AMINOTRANSFERASE [2]: 87.67 u/L
- BLOOD UREA NITROGEN [2]: 15.33 mg/dL
- CARBON DIOXIDE [2]: 33.83 mmol/L
- CHLORIDE [2]: 99.67 MEQ/L
- CHOLESTEROL [2]: 72.17 mg/dL
- CREATINE PHOSPHOKINASE [2]: 268.33 u/L
- CREATININE [2]: 0.15 mg/dL
- GLUCOSE [2]: 152.5 mg/dL
- LACTATE DEHYDROGENASE [2]: 212.67 u/L
- LIPASE [2]: 10.83 u/L
- PHOSPHORUS [2]: 11.65 mg/dL
- POTASSIUM [2]: 6.73 MEQ/L
- SODIUM [2]: 142.43 MEQ/L
- TOTAL BILIRUBIN [2]: 0.23 mg/dL
- TOTAL PROTEIN [2]: 6.07 G/DL
- URIC ACID [2]: 1.7 mg/dL
- ABSOLUTE BASOPHIL [3]: 0 CELLS/uL
- ABSOLUTE EOSINOPHIL [3]: 43.67 CELLS/uL
- ABSOLUTE LYMPHOCYTE [3]: 12245.67 CELLS/uL
- ABSOLUTE MONOCYTE [3]: 111.33 CELLS/uL
- ABSOLUTE SEGMENTED NEUTROPHIL [3]: 1432.67 CELLS/uL
- BASOPHIL [3]: 0%
- EOSINOPHIL [3]: 0.33%
- ERYTHROCYTE COUNT [3]: 5.6 x10E6/uL
- HEMATOCRIT [3]: 36.3%
- HEMOGLOBIN [3]: 14.5 G/DL
- LEUKOCYTE COUNT [3]: 13.83 x10E3/uL
- LYMPHOCYTE [3]: 88.33%
- MEAN CORPUSCULAR HEMOGLOBIN [3]: 25.93 pg
- MEAN CORPUSCULAR HEMOGLOBIN CONCENTRATION [3]: 39.97 G/DL
- MEAN CORPUSCULAR VOLUME [3]: 64.87 fL
- MONOCYTE [3]: 0.67%
- NEUTROPHIL [3]: 10.67%
- NUCLEATED RED BLOOD CELLS [3]: 0 /100WBC
- PLATELET COUNT [3]: 1222 x10E3/uL
- ALANINE AMINOTRANSFERASE [3]: 53 u/L
- ALBUMIN [3]: 4.33 G/DL
- ALKALINE PHOSPHATASE [3]: 377.33 u/L
- ASPARTATE AMINOTRANSFERASE [3]: 92 u/L
- BLOOD UREA NITROGEN [3]: 14.67 mg/dL
- CARBON DIOXIDE [3]: 31.33 mmol/L
- CHLORIDE [3]: 103 MEQ/L
- CHOLESTEROL [3]: 67.33 mg/dL
- CREATINE PHOSPHOKINASE [3]: 466 u/L
- CREATININE [3]: 0.22 mg/dL
- GLUCOSE [3]: 137.33 mg/dL
- LACTATE DEHYDROGENASE [3]: 318.67 u/L
- LIPASE [3]: 12.67 u/L
- PHOSPHORUS [3]: 11.77 mg/dL
- POTASSIUM [3]: 6.47 MEQ/L
- SODIUM [3]: 145.83 MEQ/L
- TOTAL BILIRUBIN [3]: 0.2 mg/dL
- TOTAL PROTEIN [3]: 6.03 G/DL
- URIC ACID [3]: 1.5 mg/dL
